We go through 15 compounds from US20240391936A1, “TETRAHYDROTHIENO PYRIDINE DERIVATIVES AS DDRS INHIBITORS” (CHIESI FARMACEUTICI S.P.A., priority 2021, published 2024).

Like-named read-outs stand apart in the source and are kept apart here.

Test [1] addresses T1, DDR1 (Homo sapiens, UniProt Q08345). In words: DDR1 binding assay (LanthaScreen Europium Kinase Binding assay). Set-up: purchased Carna Biosciences. As for the experimental part: (§1) DDR1 and DDR2 binding assays were performed using Life Technologies LanthaScreen™ Europium Kinase Binding assay. The compounds were incubated with 5 nM DDR1 (Carna Biosciences) or 5 nM DDR2 (Life Technologies) for 1 hour at room temperature in white 384-well OptiPlate (PerkinElmer), containing 20 nM or 10 nM Kinase Tracer 178 respectively and 2 nM Europium labelled anti-GST antibody (Life Technologies) in assay buffer (50 mM HEPES pH 7.5, 10 mM MgCl2, 1 mM EGTA and 0.01% BRIJ35).
(§2) The ratio of fluorescence emission 665 nm/615 nm after excitation at 340 nm was obtained using the Tecan Spark 20M plate reader. IC50 values were determined in GraphPad Prism 7.0 software, using 4 parameter model: log(inhibitor) vs. response. IC50 values were converted in Ki using the Cheng-Prusoff equation
For orientation: TR-FRET usually uses a lanthanide donor and a delayed reading to cut background.

Test [2] has as its target T2, DDR2 (Homo sapiens, UniProt Q16832).
T2 sequence (Q16832 22-855): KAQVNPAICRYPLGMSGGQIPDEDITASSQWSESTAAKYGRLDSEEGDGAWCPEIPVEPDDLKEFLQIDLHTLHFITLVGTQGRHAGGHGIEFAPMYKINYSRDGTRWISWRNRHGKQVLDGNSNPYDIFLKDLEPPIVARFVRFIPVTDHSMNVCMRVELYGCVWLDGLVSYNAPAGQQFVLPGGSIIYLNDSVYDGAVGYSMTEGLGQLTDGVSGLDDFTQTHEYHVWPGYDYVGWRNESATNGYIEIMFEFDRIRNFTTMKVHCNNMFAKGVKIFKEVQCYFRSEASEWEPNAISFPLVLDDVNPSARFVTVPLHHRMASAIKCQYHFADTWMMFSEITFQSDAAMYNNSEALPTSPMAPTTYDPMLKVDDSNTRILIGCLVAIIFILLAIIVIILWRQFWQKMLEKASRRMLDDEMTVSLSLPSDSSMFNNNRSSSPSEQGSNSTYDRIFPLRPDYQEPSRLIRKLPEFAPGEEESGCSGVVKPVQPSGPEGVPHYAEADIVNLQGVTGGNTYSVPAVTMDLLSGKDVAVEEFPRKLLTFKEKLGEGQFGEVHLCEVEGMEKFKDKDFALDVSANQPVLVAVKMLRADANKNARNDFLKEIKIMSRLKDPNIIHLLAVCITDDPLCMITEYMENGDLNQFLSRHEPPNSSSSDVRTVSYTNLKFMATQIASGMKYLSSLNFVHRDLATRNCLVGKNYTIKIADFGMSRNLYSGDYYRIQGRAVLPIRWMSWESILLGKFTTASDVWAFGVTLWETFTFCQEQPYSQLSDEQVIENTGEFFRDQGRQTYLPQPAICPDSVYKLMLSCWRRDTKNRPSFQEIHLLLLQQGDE
In words: DDR2 binding assay (LanthaScreen Europium Kinase Binding assay). Set-up: purchased Life Technologies. The procedure: as §1, §2

Test [3] has as its target T1, DDR1. In words: DDR1 cell based assay (PathHunter U2OS DDR1 assay). Set-up: host or cells: U2OS-DDR1 (PathHunter). Particulars: U2OS-DDR1 cells, bovine Type II Collagen 20 μg/ml. As for the experimental part: The inhibition of DDR1 receptor activation by compounds was evaluated by PathHunter® U2OS DDR1 assay (Eurofins DiscoverX), according to the manufacturer's instructions. Briefly, U2OS-DDR1 cells were seeded in white 384-well plates at a density of 5000 cells/well and incubated for 2 hours at 37° C. and 5% CO2. Cells were then treated with compounds at different concentrations and incubated for 30 minutes, before stimulation with bovine Type II Collagen 20 μg/ml and incubation overnight at 37° C. and 5% CO2. PathHunter Detection Reagents were prepared according to the protocol provided by DiscoverX and 20 μl/well of this mix were added to each well. After incubating the plates for 1 hour at room temperature in the dark, luminescence signal was acquired with a plate reader. Raw data were normalized to vehicle control (0% for normalization) and positive control (100% for normalization; cells treated with 20 μg/ml collagen II) and IC50 parameters were calculated in GraphPad Prism 8.0 software, using sigmoidal dose-response curve fitting with variable slope.

[4] abbreviates: binding assay, 5 nM DDR1, 20 nM Kinase Tracer 178, Ki from IC50 by Cheng-Prusoff, read-out: Ki DDR1.
Where [5] appears, read: binding assay, 5 nM DDR2, 10 nM Kinase Tracer 178, Ki from IC50 by Cheng-Prusoff, read-out: Ki DDR2.
Setting [6] is: 5 nM DDR1, 20 nM Kinase Tracer 178, 1 hour at room temperature, IC50 converted in Ki using the Cheng-Prusoff equation, read-out: DDR1 Ki.
Setting [7] is: 5 nM DDR2, 10 nM Kinase Tracer 178, 1 hour at room temperature, IC50 converted in Ki using the Cheng-Prusoff equation, read-out: DDR2 Ki.

T1 sequence (Q08345 19-913): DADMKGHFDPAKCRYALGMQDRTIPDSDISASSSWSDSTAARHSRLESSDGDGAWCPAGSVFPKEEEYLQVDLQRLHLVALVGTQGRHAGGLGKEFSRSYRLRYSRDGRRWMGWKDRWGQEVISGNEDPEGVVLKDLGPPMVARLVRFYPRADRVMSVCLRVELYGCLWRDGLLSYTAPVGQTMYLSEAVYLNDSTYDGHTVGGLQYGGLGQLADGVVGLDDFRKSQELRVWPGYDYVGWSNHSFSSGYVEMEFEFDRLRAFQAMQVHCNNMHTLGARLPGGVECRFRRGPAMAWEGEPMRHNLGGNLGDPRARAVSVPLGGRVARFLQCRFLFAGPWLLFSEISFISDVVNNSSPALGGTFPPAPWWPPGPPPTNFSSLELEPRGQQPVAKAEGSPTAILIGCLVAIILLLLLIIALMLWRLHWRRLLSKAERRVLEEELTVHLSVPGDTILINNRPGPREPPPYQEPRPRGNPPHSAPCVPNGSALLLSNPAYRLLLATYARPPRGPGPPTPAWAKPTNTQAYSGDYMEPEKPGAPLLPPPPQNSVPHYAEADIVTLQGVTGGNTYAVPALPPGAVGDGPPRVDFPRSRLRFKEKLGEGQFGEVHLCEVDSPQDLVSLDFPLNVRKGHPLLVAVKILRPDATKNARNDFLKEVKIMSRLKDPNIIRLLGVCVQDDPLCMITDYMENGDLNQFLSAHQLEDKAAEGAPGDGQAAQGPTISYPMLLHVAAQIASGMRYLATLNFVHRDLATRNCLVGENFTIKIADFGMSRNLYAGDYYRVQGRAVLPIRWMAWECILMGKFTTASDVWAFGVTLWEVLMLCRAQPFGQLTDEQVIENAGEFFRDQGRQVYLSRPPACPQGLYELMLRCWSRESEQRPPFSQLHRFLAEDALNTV

The Ki is a measure of affinity in units of concentration, obtained from inhibition or displacement. As usually defined, the IC50 is the midpoint of a concentration-inhibition curve. Lower therefore signals greater potency in that assay. Turning to `CN1CCN(CCOc2cc(NC(=O)c3csc4c3CCN(C(=O)c3cnc5ccccn35)C4)cc(C(F)(F)F)c2)CC1` [Example 62, 6-(imidazo[1,2-a]pyridine-3-carbonyl)-N-(3-(2-(4-methylpiperazin-1-yl)ethoxy)-5-(trifluoromethyl)phenyl)-4,5,6,7-tetrahydrothieno[2,3-c]pyridine-3-carboxamide], the inhibition constant Ki in test [1] (setting [4]) and in test [2] (setting [5]) was less than 25 nM throughout. The same compound had an IC50 in test [3] of 25 to 50 nM.

As for `CC1c2scc(C(=O)Nc3cc(C(C)(C)C)nn3C)c2CCN1C(=O)c1cnc2ccccn12` (stereo not shown) [Example 99, N-(3-(tert-butyl)-1-methyl-1H-pyrazol-5-yl)-6-(imidazo[1,2-a]pyridine-3-carbonyl)-7-methyl-4,5,6,7-tetrahydrothieno[2,3-c]pyridine-3-carboxamide], the Ki is less than 25 nM in test [1] (setting [4]) and 50 to 80 nM in test [2] (setting [5]). In test [3], the half-maximal inhibitory concentration (IC50) lay in the range of 25 to 50 nM.

As for `CN1CCN(Cc2cc(NC(=O)c3csc4c3CCN(C(=O)c3cnc5ccccn35)C4)cc(C(F)(F)F)c2)CC1=O` [Example 59, 6-(imidazo[1,2-a]pyridine-3-carbonyl)-N-(3-((4-methyl-3-oxopiperazin-1-yl)methyl)-5-(trifluoromethyl)phenyl)-4,5,6,7-tetrahydrothieno[2,3-c]pyridine-3-carboxamide], the Ki in test [1] (setting [4]) and in test [2] (setting [5]) was 25 to 50 nM each time. In test [3], this compound gave an IC50 of 25 to 50 nM.

With `CC(C)n1nc(C(C)(C)C)cc1NC(=O)c1csc2c1CCN(C(=O)c1cnc3ccccn13)C2` [Example 38, N-(3-(tert-butyl)-1-isopropyl-1H-pyrazol-5-yl)-6-(imidazo[1,2-a]pyridine-3-carbonyl)-4,5,6,7-tetrahydrothieno[2,3-c]pyridine-3-carboxamide], the Ki in test [1] (setting [4]) and in test [2] (setting [5]) was less than 25 nM in each case. Further, in test [3], the concentration for half-maximal inhibition (IC50) was 25 to 50 nM.

Take `CN(C)[C@@H]1CCN(Cc2cc(NC(=O)c3csc4c3CCN(Cc3cnc5cnccn35)C4)cc(C(F)(F)F)c2)C1` [Example 160, (R)-N-(3-((3-(dimethylamino)pyrrolidin-1-yl)methyl)-5-(trifluoromethyl)phenyl)-6-(imidazo[1,2-a]pyrazin-3-ylmethyl)-4,5,6,7-tetrahydrothieno[2,3-c]pyridine-3-carboxamide]: the Ki in test [1] (setting [4]) and in test [2] (setting [5]) was less than 25 nM throughout. The same compound had an IC50 in test [3] of 50 to 80 nM.

`CC(C)(C)c1cc(NC(=O)c2csc3c2CCN(Cc2cnc4ccnn4c2)C3)on1` [Example 156, N-(3-(tert-butyl)isoxazol-5-yl)-6-(pyrazolo[1,5-a]pyrimidin-6-ylmethyl)-4,5,6,7-tetrahydrothieno[2,3-c]pyridine-3-carboxamide]: the Ki in test [1] (setting [4]) and in test [2] (setting [5]) was less than 25 nM each time. The IC50 in test [3] is less than 25 nM.

For the compound `O=C(Nc1cncc(C(F)(F)F)c1)c1csc2c1CCN(C(=O)c1cnc3cnccn13)C2` [Example 127, 6-(imidazo[1,2-a]pyrazine-3-carbonyl)-N-(5-(trifluoromethyl)pyridin-3-yl)-4,5,6,7-tetrahydrothieno[2,3-c]pyridine-3-carboxamide], the inhibitory constant (Ki) in test [1] (setting [4]) and in test [2] (setting [5]) was less than 25 nM in each case. This compound also gave an IC50 in test [3] of 25 to 50 nM.

As to `O=C(Nc1cc(CN2CCC2)cc(C(F)(F)F)c1)c1csc2c1CCN(C(=O)c1cnc3ccccn13)C2` [Example 52, N-(3-(azetidin-1-ylmethyl)-5-(trifluoromethyl)phenyl)-6-(imidazo[1,2-a]pyridine-3-carbonyl)-4,5,6,7-tetrahydrothieno[2,3-c]pyridine-3-carboxamide], the Ki in test [1] (setting [4]) and in test [2] (setting [5]) was less than 25 nM in each case. The compound further displayed a 50% inhibitory concentration (IC50) in test [3] of less than 25 nM.

`O=C(Nc1cc(CO)cc(C(F)(F)F)c1)c1csc2c1CCN(C(=O)c1cnn3ccncc13)C2` [Example 187, N-(3-(hydroxymethyl)-5-(trifluoromethyl)phenyl)-6-(pyrazolo[1,5-a]pyrazine-3-carbonyl)-4,5,6,7-tetrahydrothieno[2,3-c]pyridine-3-carboxamide]: the inhibition constant (Ki) in test [1] (setting [4]) and in test [2] (setting [5]) was less than 25 nM in each case. Besides, the half-inhibitory concentration (IC50) in test [3] was less than 25 nM.

For `Cc1n[nH]c2ncc(CN3CCc4c(C(=O)Nc5cc(CN6CC[C@@H](N(C)C)C6)cc(C(F)(F)F)c5)csc4C3)cc12` [Example 157, (R)—N-(3-((3-(dimethylamino)pyrrolidin-1-yl)methyl)-5-(trifluoromethyl)phenyl)-6-((3-methyl-1H-pyrazolo[3,4-b]pyridin-5-yl)methyl)-4,5,6,7-tetrahydrothieno[2,3-c]pyridine-3-carboxamide], the inhibition constant Ki in test [1] (setting [4]) was less than 25 nM; in test [2] (setting [5]), 25 to 50 nM. The same compound yielded an IC50 in test [3] of 25 to 50 nM.

For the compound `CC1c2scc(C(=O)Nc3cccc(C(F)(F)F)c3)c2CCN1Cc1cnc2[nH]ccc2c1` (single isomer, unassigned) [Example 107, 6-((1H-pyrrolo[2,3-b]pyridin-5-yl)methyl)-7-methyl-N-(3-(trifluoromethyl)phenyl)-4,5,6,7-tetrahydrothieno[2,3-c]pyridine-3-carboxamide], the Ki in test [1] (setting [4]) and in test [2] (setting [5]) was less than 25 nM in each case. Also, the half-maximal inhibitory concentration (IC50) in test [3] was less than 25 nM.

Regarding `O=C(Nc1cccc(C(F)(F)F)c1)c1csc2c1CCN(C(=O)c1cnc3[nH]ncc3c1)C2` [Example 91, 6-(1H-pyrazolo[3,4-b]pyridine-5-carbonyl)-N-(3-(trifluoromethyl)phenyl)-4,5,6,7-tetrahydrothieno[2,3-c]pyridine-3-carboxamide], the inhibition constant Ki in test [1] (setting [4]) and in test [2] (setting [5]) was less than 25 nM in each case. This compound had an IC50 in test [3] of less than 25 nM.

With `CN(C)[C@@H]1CCN(Cc2cc(NC(=O)c3csc4c3CCN(C(=O)c3cnc5ccccn35)C4)cc(C(F)(F)F)c2)C1` [Example 45, (R)-N-(3-((3-(dimethylamino)pyrrolidin-1-yl)methyl)-5-(trifluoromethyl)-phenyl)-6-(imidazo[1,2-a]pyridine-3-carbonyl)-4,5,6,7-tetrahydrothieno[2,3-c]pyridine-3-carboxamide], the Ki in test [1] (setting [4]) and in test [2] (setting [5]) was less than 25 nM throughout. The compound also showed a half-maximal inhibitory concentration (IC50) in test [3] of 25 to 50 nM.

For the compound `CN1CCN(Cc2cc(NC(=O)c3cc4c(s3)CN(C(=O)c3cnc5ccccn35)CC4)cc(C(F)(F)F)c2)CC1` [Example C1, 6-(imidazo[1,2-a]pyridine-3-carbonyl)-N-(3-((4-methylpiperazin-1-yl)methyl)-5-(trifluoromethyl)phenyl)-4,5,6,7-tetrahydrothieno[2,3-c]pyridine-2-carboxamide], the Ki in test [1] (setting [6]) came to 312 nM; in test [2] (setting [7]) it was 531 nM.

In the case of `CN1CCN(Cc2cc(NC(=O)c3cc4c(s3)CCN(C(=O)c3cnc5ccccn35)C4)cc(C(F)(F)F)c2)CC1` [Example C2, 5-(imidazo[1,2-a]pyridine-3-carbonyl)-N-(3-((4-methylpiperazin-1-yl)methyl)-5-(trifluoromethyl)phenyl)-4,5,6,7-tetrahydrothieno[3,2-c]pyridine-2-carboxamide], the Ki was determined as 195 nM in test [1] (setting [6]) and 160 nM in test [2] (setting [7]).
